In brackets after ≈: the same amount, converted by molar mass. *1 amine or outer side, *2 acyl side, *3 side chain or, on linkers, in order; H or OH if unused. Where a SMILES comes first, the peptide text is derived from it. [ ]: non-standard residue; d: D form. X23 = CCCCCCCCCC[C@@H](OCCN[*:1])[C@@H](C)C(=O)[*:2]; aIle = CC[C@@H](C)[C@H](N)C(=O)O; aThr = C[C@H](O)[C@H](N)C(=O)O; NMeL = CN[C@@H](CC(C)C)C(=O)O; Dap = NC[C@H](N)C(=O)O
System: Escherichia coli (E. coli) strain CFT073 ATCC 700928
Type: cell-based
Conditions: ATCC 700928, 22 h
Description: In vitro antimicrobial activity of each compound was determined by measuring minimal inhibitor concentrations (MICs) using the broth micro-dilution technique as approved by the Clinical and Laboratory Standards Institute (CLSI) (Methods for Dilution Antimicrobial Susceptibility Tests for Bacteria that Grow Aerobically; Approved Standard—Eighth Edition. CLSI document M07-A8. Wayne, Pa.: Clinical and Laboratroy Standards; 2009). Antibacterial activity was measure against Escherichia coli (E. coli) strain CFT073 ATCC 700928, which is a clinically relevant Gram-negative strain. Cells were inoculated onto plates of Mueller Hinton Agar and grown at 37° C. for 16-18 hours. Inocula suspensions were prepared by scraping cells into 1 mL of testing media (Mueller Hinton II cation adjusted Broth supplemented with 0.002% v/v Tween-80) and diluting to a final OD600 nm of 0.01.
Test compounds were prepared in DMSO at a concentration of 100 uM The compounds were tested under several different dilution formats and the data are reported in Tables 6, 7 and 8. In protocol 1, the compound stocks were diluted into testing media at a concentration of 64 μg/ml and serial 2-fold dilutions were made in the same media, in 96-well U bottom microtiter dishes, for a total of 10 compound concentrations. In protocol 2, the compound stocks were diluted into testing media at a concentration of 4 μg/mL and serial 2-fold dilutions were made in the same media, in 96-well U bottom microtiter dishes, for a total of 10 compound concentrations. In protocol 3, compound stocks were diluted into testing media at a concentration of 0.5 μg/mL, with serial 2-fold dilutions conducted as described above. In protocol 4, compound stocks were diluted into testing media at a concentration of 0.13 μg/mL, with serial 2-fold dilutions conducted as described above. Inocula suspensions were added to the 2-fold serial dilutions of test compounds to a final density of OD OD600 nm of 0.0005 and incubated at 35° C. for 22 hours.

Row | SMILES | MIC [µM]
1 | CCCCCCCCCC[C@H]1OC(=O)CNC(=O)[C@H]([C@H](C)O)NC(=O)[C@H](CO)NC(=O)[C@H]([C@@H](C)CC)NC(=O)[C@H](CCC)N(C)C(=O)[C@@H]1C [Example 32, (6S,9S,12S,15S,18R,19R)-19-decyl-6-[(1S)-1-hydroxyethyl]-9-(hydroxymethyl)-16,18-dimethyl-12-[(1S)-1-methylpropyl]-15-propyl-1-oxa-4,7,10,13,16-pentazacyclononadecane-2,5,8,11,14,17-hexone] | 9.4 (≈ 6.56 µg/mL)
2 | CCCCCCCCCC[C@H]1OC(=O)[C@H](C)NC(=O)[C@H]([C@H](C)O)NC(=O)[C@H](CO)NC(=O)[C@H]([C@@H](C)CC)NC(=O)[C@H](CC(C)C)N(C)C(=O)[C@@H]1C [Example 33, (3S,6S,9S,12S,15S,18R,19R)-19-decyl-6-[(1S)-1-hydroxyethyl]-9-(hydroxymethyl)-15-isobutyl-3,16,18-trimethyl-12-[(1S)-1-methylpropyl]-1-oxa-4,7,10,13,16-pentazacyclononadecane-2,5,8,11,14,17-hexone] | 13 (≈ 9.44 µg/mL)
3 | CCCCCC[C@H]1OC(=O)CNC(=O)[C@H]([C@H](C)O)NC(=O)[C@H](CN)NC(=O)[C@H]([C@H](C)CC)NC(=O)[C@H](CC(C)C)N(C)C(=O)[C@@H]1C [Example 34, (6S,9S,12S,15S,18R,19R)-9-(aminomethyl)-19-hexyl-6-[(1S)-1-hydroxyethyl]-15-isobutyl-16,18-dimethyl-12-[(1R)-1-methylpropyl]-1-oxa-4,7,10,13,16-pentazacyclononadecane-2,5,8,11,14,17-hexone] | 9.4 (≈ 6.16 µg/mL)
4 | CCCCCCCCCCCC[C@H]1OC(=O)CNC(=O)[C@H]([C@H](C)O)NC(=O)[C@H](CO)NC(=O)[C@H]([C@@H](C)CC)NC(=O)[C@H](CC(C)C)N(C)C(=O)[C@@H]1C [Example 35, (6S,9S,12S,15S,18R,19R)-19-dodecyl-6-[(1S)-1-hydroxyethyl]-9-(hydroxymethyl)-15-isobutyl-16,18-dimethyl-12-[(1S)-1-methylpropyl]-1-oxa-4,7,10,13,16-pentazacyclononadecane-2,5,8,11,14,17-hexone] | 6.3 (≈ 4.66 µg/mL)
5 | CCCCCCCCCC[C@H]1OC(=O)CNC(=O)[C@H](CO)NC(=O)[C@H](CO)NC(=O)[C@H]([C@@H](C)CC)NC(=O)[C@H](CCC)N(C)C(=O)[C@@H]1C [Example 36, (6S,9S,12S,15S,18R,19R)-19-decyl-6,9-bis(hydroxymethyl)-16,18-dimethyl-12-[(1S)-1-methylpropyl]-15-propyl-1-oxa-4,7,10,13,16-pentazacyclononadecane-2,5,8,11,14,17-hexone] | 25 (≈ 17.1 µg/mL)
6 | CCCCCCCCCC[C@H]1OC(=O)CNC(=O)[C@H](CNC(N)=O)NC(=O)[C@H](CO)NC(=O)[C@H]([C@@H](C)CC)NC(=O)[C@H](CC(C)C)N(C)C(=O)[C@@H]1C [Example 37, [(6S,9S,12S,15S,18R,19R)-19-decyl-9-(hydroxymethyl)-15-isobutyl-16,18-dimethyl-12-[(1S)-1-methylpropyl]-2,5,8,11,14,17-hexaoxo-1-oxa-4,7,10,13,16-pentazacyclononadec-6-yl]methylurea] | 25 (≈ 18.5 µg/mL)
7 | CCCCCCCCCC[C@H]1OC(=O)CNC(=O)[C@H](C2CCNCC2)NC(=O)[C@H](CO)NC(=O)[C@H]([C@@H](C)CC)NC(=O)[C@H](CC(C)C)N(C)C(=O)[C@@H]1C [Example 38, (6S,9S,12S,15S,18R,19R)-19-decyl-9-(hydroxymethyl)-15-isobutyl-16,18-dimethyl-12-[(1S)-1-methylpropyl]-6-(4-piperidyl)-1-oxa-4,7,10,13,16-pentazacyclononadecane-2,5,8,11,14,17-hexone] | 50 (≈ 37.6 µg/mL)
8 | CCCCCCCCCC[C@H]1OC(=O)CNC(=O)[C@H](CO)NC(=O)[C@H](CO)NC(=O)[C@H](C(C)C)NC(=O)[C@H](CC(C)C)N(C)C(=O)[C@@H]1C [Example 39, (6S,9S,12S,15S,18R,19R)-19-decyl-6,9-bis(hydroxymethyl)-15-isobutyl-12-isopropyl-16,18-dimethyl-1-oxa-4,7,10,13,16-pentazacyclononadecane-2,5,8,11,14,17-hexone] | 25 (≈ 17.1 µg/mL)
9 | CCCCCCCCCC[C@H]1OC(=O)CNC(=O)[C@H]([C@H](C)O)NC(=O)[C@H](CO)NC(=O)[C@H](CCC)NC(=O)[C@H](CC(C)C)N(C)C(=O)[C@@H]1C [Example 40, (6S,9S,12S,15S,18R,19R)-19-decyl-6-((S)-1-hydroxyethyl)-9-(hydroxymethyl)-15-isobutyl-16,18-dimethyl-12-propyl-1-oxa-4,7,10,13,16-pentaazacyclononadecane-2,5,8,11,14,17-hexaone] | 50 (≈ 34.9 µg/mL)
10 | CCCCCCCCCC[C@H]1OC(=O)CNC(=O)[C@H](CO)NC(=O)[C@H](CO)NC(=O)[C@H](CC2CCC2)NC(=O)[C@H](CC(C)C)N(C)C(=O)[C@@H]1C [Example 41, (6S,9S,12S,15S,18R,19R)-12-(cyclobutylmethyl)-19-decyl-6,9-bis(hydroxymethyl)-15-isobutyl-16,18-dimethyl-1-oxa-4,7,10,13,16-pentazacyclononadecane-2,5,8,11,14,17-hexone] | 25 (≈ 17.7 µg/mL)
11 | CCCC(CCC)C[C@H]1OC(=O)CNC(=O)[C@H]([C@H](C)O)NC(=O)[C@H](CO)NC(=O)[C@H]([C@H](C)CC)NC(=O)[C@H](CC(C)C)N(C)C(=O)[C@@H]1C [Example 42, (6S,9S,12S,15S,18R,19R)-6-[(1S)-1-hydroxyethyl]-9-(hydroxymethyl)-15-isobutyl-16,18-dimethyl-12-[(1R)-1-methylpropyl]-19-(2-propylpentyl)-1-oxa-4,7,10,13,16-pentazacyclononadecane-2,5,8,11,14,17-hexone] | 50 (≈ 34.2 µg/mL)
12 | CCCCCCCCCC[C@H]1OC(=O)CNC(=O)[C@H](CO)NC(=O)[C@H](CO)NC(=O)[C@H](C(CC)CC)NC(=O)[C@H](CC(C)C)N(C)C(=O)[C@@H]1C [Example 43, (6S,9S,12S,15S,18R,19R)-19-decyl-12-(1-ethylpropyl)-6,9-bis(hydroxymethyl)-15-isobutyl-16,18-dimethyl-1-oxa-4,7,10,13,16-pentazacyclononadecane-2,5,8,11,14,17-hexone] | 13 (≈ 9.26 µg/mL)
13 | CC[C@H](C)[C@@H]1NC(=O)[C@H](CC(C)C)N(C)C(=O)[C@H](C)[C@@H](CCCCC(C)(C)C)OC(=O)CNC(=O)[C@H]([C@H](C)O)NC(=O)[C@H](CO)NC1=O [Example 44, (6S,9S,12S,15S,18R,19R)-19-(5,5-dimethylhexyl)-6-[(1S)-1-hydroxyethyl]-9-(hydroxymethyl)-15-isobutyl-16,18-dimethyl-12-[(1S)-1-methylpropyl]-1-oxa-4,7,10,13,16-pentazacyclononadecane-2,5,8,11,14,17-hexone] | 25 (≈ 17.1 µg/mL)
14 | CCCCCCCCCC[C@H]1OC(=O)CNC(=O)[C@H]([C@H](C)O)NC(=O)[C@H](CN)NC(=O)[C@H](C2CCCC2)NC(=O)[C@H](CC(C)C)N(C)C(=O)[C@@H]1C [Example 45, (6S,9S,12S,15S,18R,19R)-9-(aminomethyl)-12-cyclopentyl-19-decyl-6-[(1S)-1-hydroxyethyl]-15-isobutyl-16,18-dimethyl-1-oxa-4,7,10,13,16-pentazacyclononadecane-2,5,8,11,14,17-hexone] | 25 (≈ 18.1 µg/mL)
15 | CCCCCCCCCC[C@H]1OC(=O)CNC(=O)[C@H]([C@H](C)O)NC(=O)[C@H](CN)NC(=O)[C@H](CCc2ccccc2)NC(=O)[C@H](CC(C)C)N(C)C(=O)[C@@H]1C [Example 46, (6S,9S,12S,15S,18R,19R)-9-(aminomethyl)-19-decyl-6-[(1S)-1-hydroxyethyl]-15-isobutyl-16,18-dimethyl-12-(2-phenylethyl)-1-oxa-4,7,10,13,16-pentazacyclononadecane-2,5,8,11,14,17-hexone] | 25 (≈ 19 µg/mL)
16 | CCCCCCCCCC[C@H]1OCCNC(=O)[C@H]([C@H](C)O)NC(=O)[C@H](CN)NC(=O)[C@H]([C@H](C)CC)NC(=O)[C@H](CC(C)C)N(C)C(=O)[C@@H]1C [Example 47, (6S,9S,12S,15S,18R,19R)-9-(aminomethyl)-19-decyl-6-[(1S)-1-hydroxyethyl]-15-isobutyl-16,18-dimethyl-12-[(1R)-1-methylpropyl]-1-oxa-4,7,10,13,16-pentazacyclononadecane-5,8,11,14,17-pentone] (cyclo([Dap][aThr][X23][NMeL][aIle])) | 3.1 (≈ 2.16 µg/mL)
17 | CCCCCCCCCC[C@H]1OC(=O)CNC(=O)[C@H](COCCO)NC(=O)[C@H](CO)NC(=O)[C@H]([C@@H](C)CC)NC(=O)[C@H](CC(C)C)N(C)C(=O)[C@@H]1C [Example 48, (6S,9S,12S,15S,18R,19R)-19-decyl-6-(2-hydroxyethoxymethyl)-9-(hydroxymethyl)-15-isobutyl-16,18-dimethyl-12-[(1S)-1-methylpropyl]-1-oxa-4,7,10,13,16-pentazacyclononadecane-2,5,8,11,14,17-hexone] | 50 (≈ 37.1 µg/mL)

Source: patent publication US11279735B2, “Cyclic peptide antibiotics” (priority 2017, dated 2022)
